Source: ChEMBL document CHEMBL4130470, “Lipid lowering agents of natural origin: An account of some promising chemotypes” (2017)

Legend:
Homo sapiens [1] = assay: Reduction in LDL-C level in hypercholesterolemic patient dosed for 3 months; format: functional; parameters: scale not given: the % may be the effect or the level left
Homo sapiens [2] = assay: Reduction in triglyceride level in hypercholesterolemic patient dosed for 3 months; format: functional; parameters: scale not given: the % may be the effect or the level left
Homo sapiens [3] = assay: Reduction in total cholesterol level in hypercholesterolemic patient dosed for 3 months; format: functional; parameters: scale not given: the % may be the effect or the level left
Hamster [4] = assay: Reduction in serum LDL-C level hyperlipidemic hamster relative to untreated control; format: functional, Cricetinae; parameters: scale not given: the % may be the effect or the level left
Hamster [5] = assay: Reduction in serum total cholesterol level hyperlipidemic hamster relative to untreated control; format: functional, Cricetinae; parameters: scale not given: the % may be the effect or the level left
Hamster [6] = assay: Increase in hepatic LDLR protein hyperlipidemic hamster relative to untreated control; format: functional, Cricetinae
Hamster [7] = assay: Increase in hepatic LDLR mRNA hyperlipidemic hamster relative to untreated control; format: functional, Cricetinae
Hamster [8] = assay: Antidyslipidemic activity in HFD-fed dyslipidemic hamster assessed as reduction in serum total cholesterol at 50 mg/kg; format: functional, Cricetinae; parameters: scale not given: the % may be the effect or the level left
Hamster [9] = assay: Antidyslipidemic activity in HFD-fed dyslipidemic hamster assessed as reduction in serum triglyceride level at 50 mg/kg; format: functional, Cricetinae; parameters: scale not given: the % may be the effect or the level left
Hamster [10] = assay: Antidyslipidemic activity in HFD-fed dyslipidemic hamster assessed as reduction in serum glycerol at 50 mg/kg; format: functional, Cricetinae; parameters: scale not given: the % may be the effect or the level left
Hamster [11] = assay: Antidyslipidemic activity in HFD-fed dyslipidemic hamster assessed as HDLC/total cholesterol at 50 mg/kg; format: functional, Cricetinae
Sus scrofa [12] = species on record: Sus scrofa; assay: Reduction in total cholesterol in swine with metabolic syndrome and myocardial ischemia; format: functional; parameters: scale not given: the % may be the effect or the level left
Sus scrofa [13] = species on record: Sus scrofa; assay: Reduction in LDL in swine with metabolic syndrome and myocardial ischemia; format: functional; parameters: scale not given: the % may be the effect or the level left
Homo sapiens [14] = species on record: Homo sapiens; assay: Reduction in LDL-C level in patient with moderate hypercholesterolemia at 20 to 80 mg/day; format: functional; parameters: scale not given: the % may be the effect or the level left
Homo sapiens [15] = species on record: Homo sapiens; assay: Increase in HDL-C level in patient with moderate hypercholesterolemia at 20 to 80 mg/day; format: functional
Homo sapiens [16] = species on record: Homo sapiens; assay: Reduction in total cholesterol level in patient with moderate hypercholesterolemia at 20 to 80 mg/day; format: functional; parameters: scale not given: the % may be the effect or the level left
Homo sapiens [17] = species on record: Homo sapiens; assay: Reduction in triglyceride level in patient with moderate hypercholesterolemia at 20 to 80 mg/day; format: functional; parameters: scale not given: the % may be the effect or the level left
Rattus norvegicus [18] = assay: Reduction in LDL-C level in rat dosed for 7 days; format: functional; parameters: scale not given: the % may be the effect or the level left
Rattus norvegicus [19] = assay: Increase in HDL-C level in rat dosed for 7 days; format: functional
Homo sapiens [20] = species on record: Homo sapiens; assay: Reduction in total cholesterol in human at 500 mg/day; format: functional; parameters: scale not given: the % may be the effect or the level left
Homo sapiens [21] = species on record: Homo sapiens; assay: Increase in HDL-C in human at 500 mg/day; format: functional
Homo sapiens [22] = species on record: Homo sapiens; assay: Reduction in serum lipid peroxides in human at 500 mg/day; format: functional; parameters: scale not given: the % may be the effect or the level left
Homo sapiens [23] = species on record: Homo sapiens; assay: Reduction in triglyceride level in patient with heterozygous familial hypercholesterolaemia at 40 mg/day; format: functional; parameters: scale not given: the % may be the effect or the level left
Homo sapiens [24] = species on record: Homo sapiens; assay: Reduction in LDL-C level in patient with heterozygous familial hypercholesterolaemia at 40 mg/day; format: functional; parameters: scale not given: the % may be the effect or the level left
Homo sapiens [25] = species on record: Homo sapiens; assay: Increase in HDL-C level in patient with heterozygous familial hypercholesterolaemia at 40 mg/day; format: functional
Rattus norvegicus [26] = assay: Hypercholesterolemic activity in rat assessed as reduction in plasma cholesterol level at 4 to 25 mg/kg/day; format: functional; parameters: scale not given: the % may be the effect or the level left
Rattus norvegicus [27] = assay: Hypercholesterolemic activity in rat assessed as reduction in triglyceride level at 4 to 25 mg/kg/day; format: functional; parameters: scale not given: the % may be the effect or the level left
Rattus norvegicus [28] = assay: Hypercholesterolemic activity in male rat assessed as reduction in cholesterol level at 80 mg/kg/day for 7 days; format: functional; parameters: scale not given: the % may be the effect or the level left
Rattus norvegicus [29] = assay: Hypercholesterolemic activity in male rat assessed as reduction in triglyceride level at 80 mg/kg/day for 7 days; format: functional; parameters: scale not given: the % may be the effect or the level left
Rattus norvegicus [30] = assay: Hypercholesterolemic activity in rat assessed as reduction in cholesterol level at 80 mg/kg/day for 8 days; format: functional; parameters: scale not given: the % may be the effect or the level left

`COc1ccc2cc3[n+](cc2c1OC)CCc1cc2c(cc1-3)OCO2` [BERBERINE] gave an Activity (Homo sapiens [1]) of 25%, an Activity (Homo sapiens [2]) of 35% and an Activity (Homo sapiens [3]) of 29%. The Activity (Hamster [4]) was 42%, the Activity (Hamster [5]) was 40% and the “fold change (FC)” value (Hamster [6]) was 2.6. The “fold change (FC)” value (Hamster [7]) was 3.5.
In the case of `CC(C)=CCC/C(C)=C/CC/C(C)=C/CC/C(C)=C\CC/C(C)=C\CC/C(C)=C\CC/C(C)=C\CC/C(C)=C\CC/C(C)=C\CC/C(C)=C\CC/C(C)=C\CC/C(C)=C\CO`, the Activity (Hamster [8]) is reported as 25%, the Activity (Hamster [9]) is reported as 42% and the Activity (Hamster [10]) is reported as 12%. The Activity (Hamster [11]) was 26%.
In the case of `Oc1ccc(/C=C/c2cc(O)cc(O)c2)cc1` [RESVERATROL], the Activity (Sus scrofa [12]) is reported as 33% and the Activity (Sus scrofa [13]) is reported as 30%.
With `CC[C@H](C)C(=O)O[C@H]1C[C@@H](C)C=C2C=C[C@H](C)[C@H](CC[C@@H]3C[C@@H](O)CC(=O)O3)[C@H]21` [LOVASTATIN] the Activity (Homo sapiens [14]) was 24 - 40%, the Activity (Homo sapiens [15]) was 6.6 - 9.5% and the Activity (Homo sapiens [16]) was 17 - 29%. For the same compound, the Activity (Homo sapiens [17]) was 10 - 19%.
For `C/C=C/c1cc(OC)c(OC)c(OC)c1`, the Activity (Rattus norvegicus [18]) was 47% and the Activity (Rattus norvegicus [19]) was 56%.
`COc1cc(/C=C/C(=O)CC(=O)/C=C/c2ccc(O)c(OC)c2)ccc1O` [CURCUMIN] showed an Activity (Homo sapiens [20]) of 12%, an Activity (Homo sapiens [21]) of 29% and an Activity (Homo sapiens [22]) of 33%.
In the case of `CCC(C)(C)C(=O)O[C@H]1C[C@@H](C)C=C2C=C[C@H](C)[C@H](CC[C@@H]3C[C@@H](O)CC(=O)O3)[C@H]21` [SIMVASTATIN], the Activity (Homo sapiens [23]) is reported as 21 - 31%, the Activity (Homo sapiens [24]) is reported as 43 - 45% and the Activity (Homo sapiens [25]) is reported as 10 - 13%.
For `C/C=C/c1cc(OC)c(OC)cc1OC` [TRANS-ASARONE], the Activity (Rattus norvegicus [26]) was 40 - 60%, the Activity (Rattus norvegicus [27]) was 40 - 60% and the Activity (Rattus norvegicus [28]) was 57%. For the same compound, the Activity (Rattus norvegicus [29]) was 42% and the Activity (Rattus norvegicus [30]) was 38%.
